Experimental data from publication PMC9916762, “Impact of Hydrophobic Chains in Five-Coordinate Glucoconjugate Pt(II) Anticancer Agents” (International Journal of Molecular Sciences, 2023).

Legend:
[1] = target: T1, hen egg white lysozyme (HEWL) (Gallus gallus, UniProt P00698); experiment: X-ray structure of adducts with HEWL; type: binding
T1 construct: model protein hen egg white lysozyme (HEWL); purchased Merck KGaA (Darmstadt, Germany); host or cells: hen egg white (natural source, by the protein's name)
Protocol: To obtain information on the reactivity of 1-Me,Me with proteins, the X-ray structure of the adducts that the Pt compound forms with HEWL was solved.
The structures were obtained using crystals grown in 20% ethylene glycol, 0.1 M sodium acetate buffer at pH 4.0, and 0.6 M sodium nitrate (Structure A, Figure 8A) and in 2.0 M sodium formate and 0.1 M Hepes at pH 7.5 (Structure B, Figure 8B), refined at 1.25 and 1.33 Å resolutions, respectively (Table S2).
HEWL crystals were grown using the hanging drop vapour diffusion method and the following reservoirs: • (a) 20% ethylene glycol, 0.10 M sodium acetate at pH 4.0, and 0.60 M sodium nitrate • (b) 2.0 M sodium formate and 0.1 M HEPES at pH 7.5.
The crystals of the protein adduct with 1-Me,Me were obtained by the soaking procedure. The HEWL crystals were soaked in a solution consisting of 83% reservoir, 17% DMSO, and 3.3 mM 1-Me,Me.
The structures of the Pt–HEWL adducts were solved by the molecular replacement method, using the HEWL coordinates deposited in the PDB under the accession code 193L [40] as a model. Refinements were carried out with a CCP4 REFMAC5 [46], and the model building, adjustments, and inspection of the electron density maps was manually carried out using WinCoot.
The Pt binding sites were unambiguously identified by comparing 2Fo–Fc, residual Fo–Fc, and anomalous difference electron density maps. […]

[2] = In-solution stability in aqueous solvents (1H NMR, UV-vis); type: physicochemical
Source text: Attempts to evaluate their stability in aqueous solutions were complicated due the poor solubility of the complexes in water. Only for 1-Me,Me was it possible to prepare a solution in the mixed solvent D2O:DMSO-d6 10:1. […] To further study the stability of 1-Me,Me in aqueous solvents, UV–vis absorption spectra over time were collected under the two experimental conditions (20% ethylene glycol, 0.1 M sodium acetate buffer at pH 4.0 and 0.6 M sodium nitrate and 2.0 M sodium formate, 0.1 M Hepes buffer at pH 7.5), used to obtain crystals of the adducts with the model protein hen egg white lysozyme (HEWL). HEWL has been used as a model system to study the interaction with proteins of several metallodrugs, including cisplatin [31, 32, 33], oxaliplatin [34, 35], and carboplatin [31, 32]. […] Over time, a red shift of the λmax from 275 to 278 nm and of the peak at 313 nm, which shifted up to 317 nm, was observed. […] Such results convinced us that five-coordinate compounds are the species administered to cells if DMSO stock solutions are immediately diluted in an aqueous medium.
The stability of the 1-R,R’ complexes in DMSO was studied by dissolving 5 mg of each complex in 250 μL of DMSO-d6 and then diluting 200 μL of this solution with 300 μL of DMSO-d6. […] The ^1H-NMR spectra of the resulting solutions were recorded over time. […]

[3] = system: immortalized murine fibroblasts (BALB/c-3T3); conditions: read-out: IC50 BALB-c/3T3; 48 h incubation, MTT
Protocol: To evaluate their biological activity, the effects of the four complexes on cell viability were evaluated in eukaryotic cell models. For this purpose, experiments were performed on two cancer cell lines, i.e., human epidermoid carcinoma cells (A431) and murine fibroblast BALB/c-3T3 transformed with the SV40 virus (SVT2), and on two non-cancer cell lines, i.e., immortalized human keratinocytes (HaCaT) and immortalized murine fibroblasts (BALB/c-3T3). Cells were incubated with increasing concentrations of 1,Me-Me, 1,Oct-Me, 1,Me-Oct, and 1,Oct-Oct (from 0.1 to 50 μM). After 48 h of incubation, cytotoxicity was determined by MTT assay and cell survival was expressed as the percentage of viable cells in the presence of each complex compared with that of the untreated cells (Figure S19).
The immortalized human keratinocytes (HaCaT) were from Innoprot. Human The A431 epidermoid carcinoma, murine BALB/c-3T3, and SVT2 fibroblasts were from ATCC. Cells were cultured in Dulbecco’s modified Eagle’s medium (DMEM) (Sigma-Aldrich, St. Louis, MO, USA), supplemented with 10% foetal bovine serum (HyClone), 2 mM L-glutamine, and antibiotics, all from Sigma-Aldrich, under a 5% CO2-humidified atmosphere at 37 °C. To test the effects of the complexes on cell viability, cells were seeded at a density of 2.5 × 10^3 cells per well in 96-well plates. After 24 h, cells were incubated with increasing concentrations (from 0.1 to 50 μM) of the four complexes. After 48 h, cell viability was assessed by the MTT assay, as previously reported in [43]. Cell viability was expressed as the percentage of viable cells in the presence of the Pt complexes compared to the controls, represented by untreated cells and cells supplemented with identical volumes of DMSO. Each sample was tested in three independent analyses, each carried out in triplicate.

Question: Which results are given for “Platinum(1+), (2,9-dimethyl-1,10-phenanthroline- N1,N10)(η2-ethene)methyl[1,3-dihydro-1,3-dimethyl-4-[1-[2,3,4,6-tetrakis-O-(acetyl)-β-D-glucopyranosyl]-1H-1,2,3-triazol-4-yl]-2H-imidazol-2-ylidene], 1,1,1-trifluoromethanesulfonate [1-Me,Me]”?
Answer: Pt binding sites on HEWL ([1]; Structure A: 20% ethylene glycol, 0.1 M sodium acetate pH 4.0, 0.6 M sodium nitrate): two Pt binding sites were observed; Pt binding sites on HEWL ([1]; Structure B: 2.0 M sodium formate, 0.1 M Hepes pH 7.5): a single Pt binding site was observed; stability, UV-vis spectra over time ([2]; 50 μM, 2.0 M sodium formate, 0.1 M Hepes buffer pH 7.5): stable over time; stability, NMR spectra over time ([2]; D2O:DMSO-d6 10:1, after 24 h): no appreciable changes; IC50 [3]: 26 ± 1 µM
